Literature values in patent US20120238571A1, “INDAZOLE DERIVATIVES AS PI 3-KINASE” (Glaxo Group Limited, priority 2009, published 2012).
Like-named read-outs stand apart in the source and are kept apart here.

Experiments:
CK2 protein kinase = CK2 protein kinase (Homo sapiens, UniProt P68400)
Sequence of CK2 protein kinase (P68400 whole entry): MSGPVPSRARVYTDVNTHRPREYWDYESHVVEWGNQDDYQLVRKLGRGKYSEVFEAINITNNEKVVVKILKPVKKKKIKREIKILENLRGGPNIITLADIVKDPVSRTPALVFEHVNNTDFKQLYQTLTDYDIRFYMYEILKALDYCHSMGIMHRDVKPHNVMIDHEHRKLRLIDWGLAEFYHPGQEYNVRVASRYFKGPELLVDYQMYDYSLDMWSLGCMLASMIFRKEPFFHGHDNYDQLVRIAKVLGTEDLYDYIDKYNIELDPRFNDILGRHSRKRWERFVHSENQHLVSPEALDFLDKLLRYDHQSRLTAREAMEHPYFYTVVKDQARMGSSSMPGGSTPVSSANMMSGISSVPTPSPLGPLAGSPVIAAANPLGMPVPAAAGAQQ

SMILES	IC50 (CK2 protein kinase) [µM]	IC50 (Class I PI3-kinases; each of the Class I PI3-kinases, Fruman et al. 1998, read-out: IC50 against each of these PI3-kinases) [µM]	IC50 (Class I PI3-kinases; each of the four Class I PI3-kinases, read-out: IC50 against each of the various Class I PI3-kinases) [µM]
O=c1cc(N2CCOCC2)oc2c(-c3ccccc3)cccc12 [LY294002]	5 to 10	15 to 20	–
COC[C@H]1OC(=O)c2coc3c2[C@@]1(C)C1=C(C3=O)[C@@H]2CCC(=O)[C@@]2(C)C[C@H]1OC(C)=O [wortmannin]	–	–	0.001 to 0.01
